Laboratory results: PubChem BioAssay AID2060506 (Molecular Pharmacology Branch, DTP, NCI, 2025)

System: 598228-144-R-J1-PDC complex spheroid viability
Test: Anticancer human tumor 598228-144-R-J1-PDC patient-derived serous endometrial adenocarcinoma cell line growth inhibition [GQUAD]
Conditions: for IC50: curve of first compound; for viability, T/C: stronger effect = lower value
Source text: DNA G-quadruplex Stabilizer Agents in Combinations in Complex Spheroids
A high-throughput screen of multi-cell type tumor spheroids was designed to identify active combinations of DNA G-quadruplex stabilizer agents and targeted small molecules. Complex spheroids include a stromal component modeled by human endothelial cells (HUVEC) and fibroblasts modeled by human mesenchymal stem cells (MSCs). The concentration ranges selected for each drug and investigational agent were based upon clinically achievable concentrations if the clinical Cmax of the agent was known.
Compounds. The drugs and investigational agents: pidnarulex (CX-5461; NSC782164), APTO-253 (NSC789042), BRACO-19 (NSC847499), peposertib (NSC802822), ceralasertib (NSC780249), elimusertib (NSC800525), camonsertib (NSC841442), AZD-1390 (NSC803789), olaparib (NSC753686), talazoparib (NSC767125), ART-558 (NSC835418), sotorasib (NSC818433), MRTX-1133 (NSC836407), SN-38 (NSC673596), topotecan (NSC609699), etoposide (NSC141540), doxorubicin (NSC123127), gemcitabine (NSC613327), 5-fluorouracil (NSC19893), paclitaxel (NSC125973), vemurafenib (NSC761431), panobinostat (NSC761190), R-306465 (JNJ-16241199; NSC773264), adavosertib (NSC754352), TP-3654 (NSC805149), carboplatin (NSC241240), KSQ-4279 (NSC840948), and staurosporine (NSC755774) were obtained from the National Cancer Institute (NCI) Developmental Therapeutics Program Chemical Repository (34). The FDA-approved anticancer drug set is available from the NCI Developmental Therapeutics Program. […] The stock solutions were prepared in dimethyl sulfoxide (DMSO, Sigma-Aldrich, St. Louis, MO, cat. D2650) at 800-fold the tested concentration and stored at -70 degrees C prior to their use. All drugs and investigational agents were tested over a range starting from a high concentration at or near the clinical Cmax and decreasing in half-log increments. If the clinical Cmax for an agent had not been determined, the highest concentration tested was 10 microM.
2.3 Cell Culture. All cells were maintained in an incubator at 37 degrees C and 5% CO2 with 95% humidity. The PDC lines were cultured according to standard operating procedures established by the NCI PDMR. All PDCs were thawed and cultured in Matrigel-coated flasks prepared with a working solution of 1X Ham's F-12 nutrient mix, without supplementation (Invitrogen, cat. 11765054), 100 U/mL penicillin-streptomycin (Invitrogen, cat. 15140122), and 2.5% Matrigel (Corning Inc., cat. 354248) for the first three passages. The 857933-349-R-J2-PDC line was cultured in 6C/Colon 1B media, which includes advanced DMEM/F-12 (Thermo Fisher Scientific, cat. 12634028), 10 mM HEPES (Thermo Fisher Scientific, cat. 15630080), 1X GlutaMAX supplement (Thermo Fisher Scientific, cat. 35050061), 0.1 mg/mL primocin (InvivoGen, cat. ant-pm-2), 10% defined fetal bovine serum, heat inactivated (HyClone Laboratories Inc., cat. SH30070.03HI), 50% L-WRN conditioned media (ATCC, cat. CRL-3276), 1.25 mM N-Acetyl-L-cysteine (Sigma-Aldrich, cat. A9165), 10 mM nicotinamide (Sigma-Aldrich, cat. N0636), 1X B-27 supplement (Thermo Fisher Scientific, cat. 17504044), 1X N-2 supplement (Thermo Fisher Scientific, cat. 17502048), 10 microM Y-27632 dihydrochloride (Tocris Bioscience, cat. 1254), and 50 ng/mL human EGF recombinant protein (Thermo Fisher Scientific, cat. PHG0311). The 485176-168-R4-J1-PDC line was cultured in Panc media, which includes all 6C/Colon 1B media components plus 100 ng/mL human FGF-10 (Thermo Fisher Scientific, cat. 100-26), 500 nM SB-431542 (Selleckchem, cat. S1067), and gastrin (Tocris, cat. 3006).
[…]
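Further: spheroids exposed to the agents for one week before reading.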
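Wherever viability, T/C is given: percent of vehicle DMSO control viability so 100% = untreated growth.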

For `O=C(NO)c1cnc(N2CCN(S(=O)(=O)c3ccc4ccccc4c3)CC2)nc1` + Cc1cnc(CNC(=O)c2c(=O)c3ccc(N4CCCN(C)CC4)nc3n3c2sc2ccccc23)cn1, the IC50 (second compound 0.0316 µM) was 0.103 µM, the IC50 (second compound 0.1 µM) was 0.114 µM and the IC50 (second compound 0.316 µM) was 0.0666 µM. The IC50 (second compound 1 µM) was 0.0345 µM, the IC50 (second compound 3.16 µM) was < 0.0316 µM and the IC50 (second compound 10 µM) was < 0.0316 µM. The viability, T/C (second compound 0.0316 µM, first compound 0.0316 µM) was 92.8%, the viability, T/C (second compound 0.0316 µM, first compound 0.1 µM) was 49.6% and the viability, T/C (second compound 0.0316 µM, first compound 0.316 µM) was 22.8%. For the same molecule, the viability, T/C (second compound 0.0316 µM, first compound 1 µM) was 0.83%, the viability, T/C (second compound 0.0316 µM, first compound 3.16 µM) was 0.39% and the viability, T/C (second compound 0.0316 µM, first compound 10 µM) was 0.19%. For the same molecule, the viability, T/C (second compound 0.1 µM, first compound 0.0316 µM) was 80.1%, the viability, T/C (second compound 0.1 µM, first compound 0.1 µM) was 52% and the viability, T/C (second compound 0.1 µM, first compound 0.316 µM) was 25.3%. It also gave a viability, T/C (second compound 0.1 µM, first compound 1 µM) of 1.24%, a viability, T/C (second compound 0.1 µM, first compound 3.16 µM) of 0.16% and a viability, T/C (second compound 0.1 µM, first compound 10 µM) of 0.23%. For the same molecule, the viability, T/C (second compound 0.316 µM, first compound 0.0316 µM) was 69.4%, the viability, T/C (second compound 0.316 µM, first compound 0.1 µM) was 38.7% and the viability, T/C (second compound 0.316 µM, first compound 0.316 µM) was 16.6%. For the same molecule, the viability, T/C (second compound 0.316 µM, first compound 1 µM) was 0.27%, the viability, T/C (second compound 0.316 µM, first compound 3.16 µM) was 0.14% and the viability, T/C (second compound 0.316 µM, first compound 10 µM) was 0.14%. The viability, T/C (second compound 1 µM, first compound 0.0316 µM) was 51.6%, the viability, T/C (second compound 1 µM, first compound 0.1 µM) was 30.6% and the viability, T/C (second compound 1 µM, first compound 0.316 µM) was 0.25%. The viability, T/C (second compound 1 µM, first compound 1 µM) was 0.31%, the viability, T/C (second compound 1 µM, first compound 3.16 µM) was 0.15% and the viability, T/C (second compound 1 µM, first compound 10 µM) was 0.19%. The viability, T/C (second compound 3.16 µM, first compound 0.0316 µM) was 38.1%, the viability, T/C (second compound 3.16 µM, first compound 0.1 µM) was 0.34% and the viability, T/C (second compound 3.16 µM, first compound 0.316 µM) was 0.31%. For the same molecule, the viability, T/C (second compound 3.16 µM, first compound 1 µM) was 0.23%, the viability, T/C (second compound 3.16 µM, first compound 3.16 µM) was 0.19% and the viability, T/C (second compound 3.16 µM, first compound 10 µM) was 0.21%. For the same molecule, the viability, T/C (second compound 10 µM, first compound 0.0316 µM) was 0.42%, the viability, T/C (second compound 10 µM, first compound 0.1 µM) was 0.28% and the viability, T/C (second compound 10 µM, first compound 0.316 µM) was 0.56%. For the same molecule, the viability, T/C (second compound 10 µM, first compound 1 µM) was 0.4%, the viability, T/C (second compound 10 µM, first compound 3.16 µM) was 0.29% and the viability, T/C (second compound 10 µM, first compound 10 µM) was 0.25%.
